Data from ChEMBL document CHEMBL1201862, “PubChem BioAssay data set” (2004).
Activity calls are given as the source filed them.

Tests used:
[1] = biological target: Beta-galactosidase (Escherichia coli, UniProt Q8VNN2); assay: Dose response counterscreen for EBI2 assay utilizing the enzyme, b-galactosidase.; type: functional
[2] = tested on: Streptococcus; assay: GAS UMAA2166 growth inhibition – luminescence, BacTiterGlo, counter-screen for streptokinase expression inhibitor project, dose response (AID 1915); type: functional, organism-based;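 also: potency for reduction of bacterial viability or growth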
[3] = NIH3T3 cell viability loss – ATP luminescence, mouse fibroblasts, counter-screen, dose response (AID 2010); type: functional, cell-based;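 also: cells exposed to compound for about 90 hours before reading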
[4] = viability loss in HepG2 hepatoma cells – cell-based, ATP luminescence, cherry-pick, activator set 2, cytotoxicity control, dose response (AID 1053143); type: functional
[5] = tested on: Streptococcus sp. 'group A'; assay: Streptococcus pyogenes SK(-)GAS viability under kanamycin – luminescence, BacTiterGlo, confirmation, counter-screen for streptokinase expression inhibitor project, dose response (AID 1900); type: functional, organism-based
[6] = biological target: T1, Streptokinase A (Streptococcus pyogenes serotype M1, UniProt P10520); assay: viability-normalized secreted streptokinase activity reduction – plasminogen activation absorbance, OD405, dose response (AID 1914); type: functional, Streptococcus pyogenes M1 GAS;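 also: secreted streptokinase activity via plasminogen activation per viability signal from cell pellet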
T1 sequence (P10520 whole entry): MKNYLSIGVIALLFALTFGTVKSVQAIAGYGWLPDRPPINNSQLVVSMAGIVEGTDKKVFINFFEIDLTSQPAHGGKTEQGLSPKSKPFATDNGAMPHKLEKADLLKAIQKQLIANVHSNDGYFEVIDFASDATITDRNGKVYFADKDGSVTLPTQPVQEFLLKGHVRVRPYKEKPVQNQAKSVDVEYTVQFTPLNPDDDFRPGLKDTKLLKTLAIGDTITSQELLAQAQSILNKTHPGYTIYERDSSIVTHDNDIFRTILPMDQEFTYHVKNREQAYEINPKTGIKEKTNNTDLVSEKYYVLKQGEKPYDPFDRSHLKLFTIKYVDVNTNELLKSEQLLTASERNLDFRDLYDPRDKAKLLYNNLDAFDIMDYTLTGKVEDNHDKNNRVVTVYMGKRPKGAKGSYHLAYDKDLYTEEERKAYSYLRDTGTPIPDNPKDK

[7] = Trypanosoma cruzi growth suppression in host cells – NIH3T3 host cells, beta-gal luminescence, confirmation (AID 2044); type: functional, cell-based;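 also: intracellular parasites grown in NIH/3T3 mouse fibroblasts as host cells; luminescent beta-galactosidase reporter signal from transgenic T. cruzi replicating inside host cells; inhibitors lower the luminescence signal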
[8] = general mammalian cell viability loss – inhibitor set, cherry-pick, set 2, cytotoxicity control for miR-122 modulator project, dose response (AID 720697); type: functional, cell-based
[9] = activation of miR-122 Renilla sensor silencing – cell-based, Huh7 psiCHECK-miR122, Renilla luciferase, cherry-picked, dose response (AID 651956); type: functional;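 also: huh7 hepatoma cells stably carrying a psiCHECK-2 miR-122 sensor plasmid; renilla luciferase signal reporting endogenous miR-122 activity after 48 h compound exposure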
[10] = biological target: Potassium channel subfamily K member 3 (Homo sapiens, UniProt O14649); assay: inhibition of human KCNK3 channel flux – CHO cells, FluxOR thallium flux, SAR follow-up (AID 652212); type: functional
Chain of Potassium channel subfamily K member 3 (Homo sapiens, UniProt O14649) (O14649 whole entry): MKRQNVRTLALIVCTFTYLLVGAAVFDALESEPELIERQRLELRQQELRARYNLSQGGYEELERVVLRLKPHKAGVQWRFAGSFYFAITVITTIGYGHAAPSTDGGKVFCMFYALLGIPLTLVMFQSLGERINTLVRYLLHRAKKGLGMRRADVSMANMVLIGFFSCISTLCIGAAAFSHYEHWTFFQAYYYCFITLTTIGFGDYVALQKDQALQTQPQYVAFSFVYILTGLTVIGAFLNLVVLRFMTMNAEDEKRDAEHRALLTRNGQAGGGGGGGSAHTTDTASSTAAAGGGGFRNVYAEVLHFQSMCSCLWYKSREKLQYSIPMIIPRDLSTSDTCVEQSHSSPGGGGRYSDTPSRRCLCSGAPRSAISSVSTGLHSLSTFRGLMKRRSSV

[11] = biological target: Potassium channel subfamily K member 9 (Homo sapiens, UniProt Q9NPC2); assay: KCNK9 flux blockade, concentration-response – cell-based, FluxOR thallium flux, selectivity assay for TASK1 inhibitor project, SAR follow-up (AID 652211); type: functional;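 also: potency is for inhibitors of the channel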
Chain of Potassium channel subfamily K member 9 (Q9NPC2 whole entry): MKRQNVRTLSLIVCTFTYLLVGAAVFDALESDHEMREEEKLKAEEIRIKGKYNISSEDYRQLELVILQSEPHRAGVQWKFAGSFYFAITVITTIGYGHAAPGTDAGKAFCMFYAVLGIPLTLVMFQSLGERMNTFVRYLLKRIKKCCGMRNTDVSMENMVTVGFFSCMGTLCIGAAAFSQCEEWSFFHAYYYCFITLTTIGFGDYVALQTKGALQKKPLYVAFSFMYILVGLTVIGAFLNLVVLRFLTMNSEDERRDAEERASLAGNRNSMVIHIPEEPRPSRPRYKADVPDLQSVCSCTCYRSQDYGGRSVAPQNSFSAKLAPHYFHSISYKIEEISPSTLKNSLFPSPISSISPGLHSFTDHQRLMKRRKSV

[12] = biological target: Voltage-gated inwardly rectifying potassium channel KCNH2 (Homo sapiens, UniProt Q12809); assay: off-target hERG block by TASK1 inhibitor candidates – FluxOR thallium flux, concentration-response, CHO cells, selectivity assay for TASK1 inhibitor project, SAR follow-up (AID 652194); type: functional, cell-based
Chain of Voltage-gated inwardly rectifying potassium channel KCNH2 (Q12809 whole entry): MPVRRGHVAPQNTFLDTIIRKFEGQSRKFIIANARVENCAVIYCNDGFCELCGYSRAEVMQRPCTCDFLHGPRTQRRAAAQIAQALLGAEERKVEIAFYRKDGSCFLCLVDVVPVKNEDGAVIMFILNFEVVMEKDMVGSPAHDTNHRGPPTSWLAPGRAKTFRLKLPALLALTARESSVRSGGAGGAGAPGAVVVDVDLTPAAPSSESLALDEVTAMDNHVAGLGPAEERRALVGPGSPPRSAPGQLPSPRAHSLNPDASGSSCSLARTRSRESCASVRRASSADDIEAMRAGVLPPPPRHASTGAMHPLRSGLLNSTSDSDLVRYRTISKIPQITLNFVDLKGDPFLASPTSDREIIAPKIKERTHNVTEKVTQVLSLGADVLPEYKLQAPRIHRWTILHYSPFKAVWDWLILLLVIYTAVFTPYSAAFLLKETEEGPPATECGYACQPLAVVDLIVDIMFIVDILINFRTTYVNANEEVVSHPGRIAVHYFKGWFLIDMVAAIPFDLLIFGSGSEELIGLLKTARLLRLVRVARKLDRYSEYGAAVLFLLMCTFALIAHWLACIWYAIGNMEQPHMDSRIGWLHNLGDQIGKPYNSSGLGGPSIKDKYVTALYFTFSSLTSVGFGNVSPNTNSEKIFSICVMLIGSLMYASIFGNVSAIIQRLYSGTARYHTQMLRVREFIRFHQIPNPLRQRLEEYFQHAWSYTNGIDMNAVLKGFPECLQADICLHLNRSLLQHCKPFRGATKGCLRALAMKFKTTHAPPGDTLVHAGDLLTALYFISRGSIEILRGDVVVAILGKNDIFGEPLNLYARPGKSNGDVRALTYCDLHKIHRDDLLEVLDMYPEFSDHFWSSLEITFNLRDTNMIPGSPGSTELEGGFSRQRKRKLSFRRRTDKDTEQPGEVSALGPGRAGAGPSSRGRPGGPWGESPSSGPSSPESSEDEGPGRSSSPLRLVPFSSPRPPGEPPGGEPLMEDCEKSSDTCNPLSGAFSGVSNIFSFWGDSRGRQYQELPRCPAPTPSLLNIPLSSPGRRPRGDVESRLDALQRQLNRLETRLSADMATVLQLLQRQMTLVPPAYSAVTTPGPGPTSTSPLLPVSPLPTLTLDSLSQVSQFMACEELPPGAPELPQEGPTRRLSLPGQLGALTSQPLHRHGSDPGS

[13] = biological target: T2, Trace amine-associated receptor 1 (Homo sapiens, UniProt Q96RJ0); assay: Fluorescence-based cell-based high throughput dose response assay to identify agonists of the human trace amine associated receptor 1 (TAAR1).; type: functional
T2 sequence (Q96RJ0 whole entry): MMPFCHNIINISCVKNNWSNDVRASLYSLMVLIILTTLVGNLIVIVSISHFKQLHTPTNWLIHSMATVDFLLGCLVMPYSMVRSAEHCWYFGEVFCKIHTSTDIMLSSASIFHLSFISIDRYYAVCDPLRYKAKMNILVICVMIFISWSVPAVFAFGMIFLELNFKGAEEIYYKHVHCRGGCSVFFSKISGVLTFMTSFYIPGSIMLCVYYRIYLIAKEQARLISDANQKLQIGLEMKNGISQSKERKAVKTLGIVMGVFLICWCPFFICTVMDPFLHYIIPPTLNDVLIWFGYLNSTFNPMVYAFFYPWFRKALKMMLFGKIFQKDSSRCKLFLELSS

[14] = biological target: T2, Trace amine-associated receptor 1; assay: Counterscreen for agonists of the human trace amine associated receptor 1 (hTAAR1): Fluorescence-based cell-based high throughput dose response assay to identify hTAAR1 agonist that also desensitize TAAR1 receptor response.; type: functional
[15] = cells; type: functional, cell-based
[16] = cells; type: functional, cell-based; remark: listed apart in the source
[17] = biological target: Potassium channel subfamily K member 3 (Rattus norvegicus, UniProt O54912); assay: SAR analysis for the identification of selective inhibitors of the two-pore domain potassium channel TASK1(KCNK3):Automated Electrophysiology.; type: functional
Chain of Potassium channel subfamily K member 3 (Rattus norvegicus, UniProt O54912) (O54912 whole entry, the tested form may be a part): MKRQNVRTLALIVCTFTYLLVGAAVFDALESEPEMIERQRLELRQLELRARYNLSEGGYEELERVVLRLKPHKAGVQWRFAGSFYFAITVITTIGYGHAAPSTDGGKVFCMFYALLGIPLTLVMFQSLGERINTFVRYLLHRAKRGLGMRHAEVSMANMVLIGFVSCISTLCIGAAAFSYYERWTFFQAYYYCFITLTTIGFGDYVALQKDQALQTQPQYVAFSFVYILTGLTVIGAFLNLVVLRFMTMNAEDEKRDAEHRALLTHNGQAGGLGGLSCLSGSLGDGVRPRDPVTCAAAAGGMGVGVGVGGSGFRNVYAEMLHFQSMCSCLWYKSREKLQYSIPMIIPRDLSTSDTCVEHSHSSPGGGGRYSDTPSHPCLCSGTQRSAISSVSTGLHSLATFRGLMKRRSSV

Chain of Beta-galactosidase (Q8VNN2 whole entry): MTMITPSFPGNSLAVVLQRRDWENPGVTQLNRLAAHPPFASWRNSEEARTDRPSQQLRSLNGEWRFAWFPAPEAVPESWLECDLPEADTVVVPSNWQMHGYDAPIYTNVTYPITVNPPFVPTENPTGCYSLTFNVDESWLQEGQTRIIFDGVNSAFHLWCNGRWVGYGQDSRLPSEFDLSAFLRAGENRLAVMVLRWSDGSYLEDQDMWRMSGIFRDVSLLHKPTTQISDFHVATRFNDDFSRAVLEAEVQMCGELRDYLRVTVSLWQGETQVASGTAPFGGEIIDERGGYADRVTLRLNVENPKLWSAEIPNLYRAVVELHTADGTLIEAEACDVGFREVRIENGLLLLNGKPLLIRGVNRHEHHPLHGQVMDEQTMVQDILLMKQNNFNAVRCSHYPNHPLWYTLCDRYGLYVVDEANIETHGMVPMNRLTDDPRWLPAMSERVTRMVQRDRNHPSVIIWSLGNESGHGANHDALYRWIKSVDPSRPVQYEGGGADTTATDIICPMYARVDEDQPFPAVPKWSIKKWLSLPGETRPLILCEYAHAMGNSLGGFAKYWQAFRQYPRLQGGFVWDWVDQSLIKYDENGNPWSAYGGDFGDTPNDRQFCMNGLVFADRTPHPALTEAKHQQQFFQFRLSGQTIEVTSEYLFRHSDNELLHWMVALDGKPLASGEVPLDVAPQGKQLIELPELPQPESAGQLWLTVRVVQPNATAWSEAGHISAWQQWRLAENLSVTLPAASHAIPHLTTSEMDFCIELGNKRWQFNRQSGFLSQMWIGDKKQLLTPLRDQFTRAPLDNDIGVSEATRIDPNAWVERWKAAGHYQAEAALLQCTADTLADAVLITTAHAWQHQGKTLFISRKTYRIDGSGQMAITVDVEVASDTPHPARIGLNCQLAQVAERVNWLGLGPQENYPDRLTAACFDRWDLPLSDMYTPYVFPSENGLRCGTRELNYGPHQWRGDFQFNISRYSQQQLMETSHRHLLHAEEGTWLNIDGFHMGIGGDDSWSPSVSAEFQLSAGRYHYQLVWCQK

Question: With `O=C(/C=C/c1ccc(F)cc1)N1CCN(Cc2ccccc2)CC1` as the compound, how does the IC50 [1] read?
Answer: > 80 µM (inactive)

Question: Which EC50 [2] does the source give for `Cc1nn(-c2ccccc2)c(C)c1/C=N/Nc1nc2ccccc2[nH]1` here?
Answer: > 150 µM (not active)

Question: And the EC50 [3]?
Answer: > 60 µM (not active)

Question: And the AC50 [4]?
Answer: 26 µM (active)

Question: What about the EC50 [5] of the same compound?
Answer: 7.89 µM (active)

Question: And the EC50 [6]?
Answer: > 150 µM (not active)

Question: And the EC50 [7]?
Answer: 2.15 µM (active)

Question: Which results are given for `C[C@H]1CN([C@@H](C)CO)S(=O)(=O)c2ccc(-c3ccc(C(=O)N(C)C)cc3)cc2O[C@H]1CN(C)C(=O)C1CCC1`?
Answer: AC50 [8]: 2.2 µM (active); AC50 [9]: 10.9 µM (active)

Question: Which results are given for `COc1ccccc1NC(=O)c1cccc(NC(=O)C2CCCC2)c1`?
Answer: IC50 [10]: 0.238 µM (active); IC50 [11]: 1.55 µM (active); IC50 [12]: 43.5 µM (active)

Question: Which EC50 [13] does the source give for `CC(C)[C@H](NC(=O)CC1CCCC1)C(=O)N1CCC[C@H]1C(=O)NCCc1ccccc1Cl` here?
Answer: 2.01 µM (active)

Question: And the IC50 [14]?
Answer: 4 µM (active)

Question: And the IC50 [15]?
Answer: > 29.9 µM (inactive)

Question: And the EC50 [16]?
Answer: > 29.9 µM (inactive)

Question: Which results are given for `Cc1cccc(C(=O)Nc2cccc(NC(=O)c3ccccc3OC(F)(F)F)c2)c1`?
Answer: IC50 [10]: 0.028 µM (active); IC50 [11]: 1.05 µM (active); IC50 [17]: 0.06 µM (active)
